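Where inhibition never reached the appropriate level, the endpoint shown equals the highest concentration tested. Otherwise, values were interpolated linearly from a five-concentration, 48-hour dose response in 96-well plates. GI50: concentration for 50% inhibition of growth. TGI denotes the concentration required for complete inhibition of growth.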
What was measured:
Assay in all cases: NCI-60 cell line screen, 48 h
[1] = system: 786-0 renal
[2] = system: A498 renal
[3] = system: A549 NSCLC
[4] = system: ACHN renal
[5] = system: BT-549 breast
[6] = system: CAKI-1 renal
[7] = system: CCRF-CEM leukemia
[8] = system: COLO 205 colon
[9] = system: DU-145 prostate
[10] = system: EKVX NSCLC
[11] = system: HCC-2998 colon
[12] = system: HCT-116 colon
[13] = system: HCT-15 colon
[14] = system: HL-60(TB) leukemia
[15] = system: HOP-62 NSCLC
[16] = system: HOP-92 NSCLC
[17] = system: HS 578T breast
[18] = system: HT29 colon
[19] = system: IGROV1 ovarian
[20] = system: K-562 leukemia
[21] = system: KM12 colon
[22] = system: LOX IMVI melanoma
[23] = system: M14 melanoma
[24] = system: MALME-3M melanoma
[25] = system: MCF7 breast
[26] = system: MDA-MB-231 breast
[27] = system: MDA-MB-435
[28] = system: MOLT-4 leukemia
[29] = system: NCI-H226 lung
[30] = system: NCI-H23 lung
[31] = system: NCI-H460 lung
[32] = system: NCI-H522 lung
[33] = system: NCI/ADR-RES ovarian
[34] = system: OVCAR-3 ovarian
[35] = system: OVCAR-4 ovarian
[36] = system: OVCAR-5 ovarian
[37] = system: OVCAR-8 ovarian
[38] = system: PC-3 prostate
[39] = system: RPMI-8226 leukemia
[40] = system: RXF 393 renal
[41] = system: SF-268 CNS
[42] = system: SF-295 CNS
[43] = system: SF-539 CNS
[44] = system: SK-MEL-2 melanoma
[45] = system: SK-MEL-28 melanoma
[46] = system: SK-MEL-5 melanoma
[47] = system: SK-OV-3 ovarian
[48] = system: SN12C renal
[49] = system: SNB-19 CNS
[50] = system: SNB-75 CNS
[51] = system: SR leukemia
[52] = system: SW-620 colon
[53] = system: T-47D breast
[54] = system: TK-10 renal
[55] = system: U251 CNS
[56] = system: UACC-257 melanoma
[57] = system: UACC-62 melanoma
[58] = system: UO-31 renal

SMILES: CNC(=O)NCC1OC(n2cnc3c(NC(=O)Nc4ccccc4)ncnc32)C(O[Si](C)(C)C(C)(C)C)C1CC(=O)N(C)OC (stereo unspecified)
- GI50 [1]: 7.06 µM
- TGI [1]: > 100 µM
- GI50 [2]: 6.06 µM
- TGI [2]: > 63.5 µM
- GI50 [3]: 5.88 µM
- TGI [3]: > 100 µM
- GI50 [4]: 7.87 µM
- TGI [4]: > 100 µM
- GI50 [5]: 9.58 µM
- TGI [5]: > 100 µM
- GI50 [6]: 53.8 µM
- TGI [6]: > 100 µM
- GI50 [7]: 6.37 µM
- TGI [7]: > 100 µM
- GI50 [8]: 12.3 µM
- TGI [8]: > 100 µM
- GI50 [9]: 14.7 µM
- TGI [9]: > 100 µM
- GI50 [10]: 12.3 µM
- TGI [10]: > 100 µM
- GI50 [11]: 30.6 µM
- TGI [11]: > 100 µM
- GI50 [12]: 3.95 µM
- TGI [12]: > 100 µM
- GI50 [13]: 4.8 µM
- TGI [13]: > 100 µM
- GI50 [14]: 1.69 µM
- TGI [14]: 4.23 µM
- GI50 [15]: 22 µM
- TGI [15]: > 100 µM
- GI50 [16]: 4.33 µM
- TGI [16]: > 49.3 µM
- GI50 [17]: 7.39 µM
- TGI [17]: > 100 µM
- GI50 [18]: 4.12 µM
- TGI [18]: > 100 µM
- GI50 [19]: 4 µM
- TGI [19]: > 81.1 µM
- GI50 [20]: 3.12 µM
- TGI [20]: > 100 µM
- GI50 [21]: 10.6 µM
- TGI [21]: > 100 µM
- GI50 [22]: 5.12 µM
- TGI [22]: > 100 µM
- GI50 [23]: 8.36 µM
- TGI [23]: > 100 µM
- GI50 [24]: 7.51 µM
- TGI [24]: > 100 µM
- GI50 [25]: 4.11 µM
- TGI [25]: > 100 µM
- GI50 [26]: 8.47 µM
- TGI [26]: > 100 µM
- GI50 [27]: 5.66 µM
- TGI [27]: > 100 µM
- GI50 [28]: 2.23 µM
- TGI [28]: 9.36 µM
- GI50 [29]: 15.8 µM
- TGI [29]: > 100 µM
- GI50 [30]: 23.6 µM
- TGI [30]: > 100 µM
- GI50 [31]: 5.32 µM
- TGI [31]: > 100 µM
- GI50 [32]: 7.76 µM
- TGI [32]: > 100 µM
- GI50 [33]: > 100 µM
- TGI [33]: > 100 µM
- GI50 [34]: 5.84 µM
- TGI [34]: > 100 µM
- GI50 [35]: 16.6 µM
- TGI [35]: > 100 µM
- GI50 [36]: 16.8 µM
- TGI [36]: > 100 µM
- GI50 [37]: 6.52 µM
- TGI [37]: > 100 µM
- GI50 [38]: 4.95 µM
- TGI [38]: > 100 µM
- GI50 [39]: 1.58 µM
- TGI [39]: 5.4 µM
- GI50 [40]: 4.02 µM
- TGI [40]: 12.7 µM
- GI50 [41]: 8.29 µM
- TGI [41]: > 100 µM
- GI50 [42]: 9.09 µM
- TGI [42]: > 100 µM
- GI50 [43]: 8.21 µM
- TGI [43]: > 100 µM
- GI50 [44]: 8.08 µM
- TGI [44]: > 91.2 µM
- GI50 [45]: 5.21 µM
- TGI [45]: > 100 µM
- GI50 [46]: 4.92 µM
- TGI [46]: > 100 µM
- GI50 [47]: > 72.6 µM
- TGI [47]: > 100 µM
- GI50 [48]: 17.1 µM
- TGI [48]: > 100 µM
- GI50 [49]: > 23 µM
- TGI [49]: > 100 µM
- GI50 [50]: 6.32 µM
- TGI [50]: > 100 µM
- GI50 [51]: 1.63 µM
- TGI [51]: 4.06 µM
- GI50 [52]: > 100 µM
- TGI [52]: > 100 µM
- GI50 [53]: 7.41 µM
- TGI [53]: > 100 µM
- GI50 [54]: 9.17 µM
- TGI [54]: > 100 µM
- GI50 [55]: 4.85 µM
- TGI [55]: > 100 µM
- GI50 [56]: 8.25 µM
- TGI [56]: > 100 µM
- GI50 [57]: 41.9 µM
- TGI [57]: > 100 µM
- GI50 [58]: 5.7 µM
- TGI [58]: > 100 µM

Reference: PubChem BioAssay (NCI)
